{"source": "ChEMBL document CHEMBL5131389", "about": "“PSMA-targeted small-molecule docetaxel conjugate: Synthesis and preclinical evaluation” (Eur J Med Chem, 2022)", "key": {"[1]": {"test": "Chronic toxicity in rat assessed as increase in relative kidney weight at 18.75 mg/kg, iv administered as pluronic F127 formulation at 4 intervals for 21 days and observed 3 weeks post last injection", "assay_type": "organism-based", "conditions": "in vivo, 2544 h, time 106 day"}, "[2]": {"test": "Stability of the compound in pH 7.4 buffer measured upto 96 hrs by LC-MS based mass spectrometric analysis", "assay_type": "physicochemical", "conditions": "pH 7.4, 96 h"}, "[3]": {"test": "Aqueous solubility of compound", "assay_type": "physicochemical"}, "[4]": {"test_system": "CWR22R", "test": "Antitumor activity against human 22Rv1 cells xenografted in Balb/c nude mouse assessed as tumor growth inhibition at 10 mg/kg, ip administered once in two days for three times and measured 1 day after the end of treatment relative to control", "assay_type": "functional", "conditions": "22Rv1, 168 h, time 7 day, read-out: TGI"}, "[5]": {"test_system": "CWR22R", "test": "Antitumor activity against human 22Rv1 cells xenografted in Balb/c nude mouse assessed as tumor growth inhibition at 20 mg/kg, ip administered once in two days for three times and measured 4 days after the end of treatment relative to control", "assay_type": "functional", "conditions": "22Rv1, 240 h, time 10 day, read-out: TGI"}, "[6]": {"test_system": "DU-145", "test": "Antitumor activity against human DU-145 cells xenografted in BALB/c nude mouse assessed as tumor growth inhibition at 30 mg/kg, ip measured upto 30 days", "assay_type": "functional", "conditions": "DU-145, 720 h, time <= 30 day, read-out: TGI"}, "[7]": {"test_system": "DU-145", "test": "Antitumor activity against human DU-145 cells xenografted in BALB/c nude mouse assessed as reduction in tumor growth index at 30 mg/kg, ip measured upto 30 days", "assay_type": "functional", "set-up": "scale not given: the % may be the effect or the level left", "conditions": "time <= 30 day"}, "[8]": {"test": "Chronic toxicity in Soviet Chinchilla rabbit assessed as decrease in body weight at 10.17 mg/kg, iv administered as pluronic F127 formulation at 4 intervals for 21 days and observed upto day 49", "assay_type": "organism-based, Oryctolagus cuniculus", "conditions": "in vivo, 1176 h, time < 49 day"}, "[9]": {"test": "Chronic toxicity in Soviet Chinchilla rabbit assessed as decrease in body weight at 8.14 mg/kg, iv administered as pluronic F127 formulation at 4 intervals for 21 days and observed 3 weeks post last injection", "assay_type": "organism-based, Oryctolagus cuniculus", "conditions": "in vivo, 2544 h, time 106 day"}, "[10]": {"test": "Acute toxicity in Wistar rat assessed as animal death at 15 to 279 mg/kg, iv administered for 14 days as pluronic F127 formulation and measured after 3 days", "assay_type": "organism-based", "conditions": "in vivo, 408 h, dose 15-279 mg/kg, time 17 day"}, "[11]": {"test": "Acute toxicity in ICR mouse assessed as violation of motor activity in hind limb administered intravenously as pluronic F127 formulation and measured for 14 days", "conditions": "in vivo, iv, 336 h, dose 183-960 mg/kg, time 14 day"}, "[12]": {"test": "Acute toxicity in Wistar rat assessed as violation of motor activity in hind limb administered intravenously as pluronic F127 formulation and measured for 14 days", "conditions": "in vivo, iv, 336 h, dose 15-279 mg/kg, time 14 day"}, "[13]": {"test": "Acute toxicity in ICR mouse assessed as decrease in body weight administered intravenously as pluronic F127 formulation and measured for 14 days", "conditions": "in vivo, iv, 336 h, dose 183-960 mg/kg, time 14 day"}, "[14]": {"test": "Acute toxicity in ICR mouse assessed as kidney lesion at 183 to 960 mg/kg, iv administered as pluronic F127 formulation and measured for 14 days", "assay_type": "organism-based", "conditions": "in vivo, 336 h, dose 183-960 mg/kg, time 14 day"}, "[15]": {"test": "Acute toxicity in ICR mouse assessed as hypertrophied adrenal gland at 183 to 960 mg/kg, iv administered as pluronic F127 formulation and measured for 14 days", "assay_type": "organism-based", "conditions": "in vivo, 336 h, dose 183-960 mg/kg, time 14 day"}, "[16]": {"test": "Acute toxicity in Wistar rat assessed as hypertrophied adrenal gland at 15 to 279 mg/kg, iv administered as pluronic F127 formulation and measured for 14 days", "assay_type": "organism-based", "conditions": "in vivo, 336 h, dose 15-279 mg/kg, time 14 day"}, "[17]": {"test": "Acute toxicity in ICR mouse assessed as maximum tolerated dose administered intravenously as pluronic F127 formulation and measured for 14 days", "conditions": "in vivo, route iv, time 14 day"}, "[18]": {"test": "AUC (0 to infinity) in Soviet Chinchilla rabbit at 8.1 mg/kg, iv administered as pluronic F127 formulation measured upto 72 hrs by high-performance liquid chromatography tandem mass spectrometric analysis", "assay_type": "ADME, organism-based, Oryctolagus cuniculus", "set-up": "dose 8.1 mg/kg, time < 72 hrs, route iv", "conditions": "in vivo"}, "[19]": {"test": "Half-life in Albino Wistar rat at 15 mg/kg, iv administered as pluronic F127 formulation measured upto 72 hrs by high-performance liquid chromatography tandem mass spectrometric analysis", "assay_type": "ADME, organism-based", "conditions": "in vivo"}, "[20]": {"test": "MRT (0 to t) in Albino Wistar rat at 15 mg/kg, iv administered as pluronic F127 formulation measured upto 72 hrs by high-performance liquid chromatography tandem mass spectrometric analysis", "assay_type": "ADME, organism-based", "conditions": "in vivo"}, "[21]": {"test": "Subchronic toxicity in Wistar rat assessed as cumulative effect of drug at 58 mg/kg, iv administered as pluronic F127 formulation daily for 28 days", "assay_type": "organism-based", "conditions": "in vivo, 672 h, time 28 day"}, "[22]": {"test": "Subchronic toxicity in Wistar rat assessed as decrease in body weight at 58 mg/kg, iv administered as pluronic F127 formulation daily for 28 days", "assay_type": "organism-based", "conditions": "in vivo, 672 h, time 28 day"}, "[23]": {"test": "Chronic toxicity in rat assessed as reduction in standing up at 22.5 mg/kg, iv administered as pluronic F127 formulation at 4 intervals for 21 days and observed 3 weeks post last injection", "assay_type": "organism-based", "conditions": "in vivo, 2544 h, time 106 day"}, "[24]": {"test": "Chronic toxicity in rat assessed as neurological disorder at 22.5 mg/kg, iv administered as pluronic F127 formulation at 4 intervals for 21 days and observed 3 weeks post last injection", "assay_type": "organism-based", "conditions": "in vivo, 2544 h, time 106 day"}, "[25]": {"test": "Chronic toxicity in rat assessed as neurological disorder at 15 to […] mg/kg, iv administered as pluronic F127 formulation at 4 intervals for 21 days and observed 3 weeks post last injection", "assay_type": "organism-based", "conditions": "in vivo, 2544 h, dose lower 15 mg/kg, time 106 day"}, "[26]": {"test": "Chronic toxicity in rat assessed as change in volume of excreted urine at 18.75 to 22.5 mg/kg, iv administered as pluronic F127 formulation at 4 intervals for 21 days and observed 3 weeks post last injection", "assay_type": "organism-based", "conditions": "in vivo, 2544 h, dose 18.75-22.5 mg/kg, time 106 day"}, "[27]": {"test": "Chronic toxicity in rat assessed as change in volume of excreted urine at 15 mg/kg, iv administered as pluronic F127 formulation at 4 intervals for 21 days and observed 3 weeks post last injection", "assay_type": "organism-based", "conditions": "in vivo, 2544 h, time 106 day"}, "[28]": {"test": "Chronic toxicity in rat assessed as increase in relative mass of pancreas administered intravenously as pluronic F127 formulation at 4 intervals for 21 days and observed 3 weeks post last injection relative to control", "assay_type": "tissue-based", "conditions": "in vivo, iv, 2544 h, time 106 day"}, "[29]": {"test": "Chronic toxicity in rat assessed as decrease in relative mass of testes administered intravenously as pluronic F127 formulation at 4 intervals for 21 days and observed 3 weeks post last injection relative to control", "conditions": "in vivo, iv, 2544 h, time 106 day"}, "[30]": {"test": "Chronic toxicity in Soviet Chinchilla rabbit assessed as animal death administered intravenously as pluronic F127 formulation at 4 intervals for 21 days and observed 3 weeks post last injection", "set-up": "species or system Oryctolagus cuniculus", "conditions": "in vivo, iv, 2544 h, time 106 day"}, "[31]": {"test": "Chronic toxicity in Soviet Chinchilla rabbit assessed as increase in relative liver mass administered intravenously as pluronic F127 formulation at 4 intervals for 21 days and observed 3 weeks post last injection relative to control", "assay_type": "tissue-based, Oryctolagus cuniculus", "conditions": "in vivo, iv, 2544 h, time 106 day"}, "[32]": {"test": "Chronic toxicity in Soviet Chinchilla rabbit assessed as increase in body weight at 12.21 mg/kg, iv administered as pluronic F127 formulation at 4 intervals for 21 days and observed 3 weeks post last injection relative to control", "assay_type": "organism-based, Oryctolagus cuniculus", "conditions": "in vivo, 2544 h, time 106 day"}}, "data": [{"smiles": "CC(=O)O[C@@]12CO[C@@H]1C[C@H](O)[C@@]1(C)C(=O)[C@H](O)C3=C(C)[C@@H](OC(=O)[C@H](OC(=O)CCCc4cn(CCCNC(=O)[C@H](Cc5ccc(O)cc5)NC(=O)[C@H](Cc5ccccc5)NC(=O)CCC(=O)NCCCCCC(=O)N(CCCC[C@H](NC(=O)N[C@@H](CCC(=O)O)C(=O)O)C(=O)O)Cc5cccc(Cl)c5)nn4)[C@@H](NC(=O)OC(C)(C)C)c4ccccc4)C[C@@](O)([C@@H](OC(=O)c4ccccc4)[C@H]21)C3(C)C", "values": [{"measurement": "Activity", "setting": "[1]", "value": "Toxic"}, {"measurement": "Stability", "setting": "[2]", "value": "Unstable"}, {"measurement": "solubility", "setting": "[3]", "value": 0.13, "unit": "mg/mL"}, {"measurement": "inhibition in vivo at 10 mg/kg", "setting": "[4]", "value": 84, "unit": "%"}, {"measurement": "inhibition in vivo at 20 mg/kg", "setting": "[5]", "value": 85, "unit": "%"}, {"measurement": "inhibition in vivo at 30 mg/kg", "setting": "[6]", "value": 81.7, "unit": "%"}, {"measurement": "Activity", "setting": "[7]", "value": 190.1, "unit": "%"}, {"measurement": "Activity", "setting": "[8]", "value": "Toxic"}, {"measurement": "Activity", "setting": "[9]", "value": "Toxic"}, {"measurement": "Activity", "setting": "[10]", "value": "Toxic"}, {"measurement": "Activity", "setting": "[11]", "value": "Toxic"}, {"measurement": "Activity", "setting": "[12]", "value": "Toxic"}, {"measurement": "Activity", "setting": "[13]", "value": "Toxic"}, {"measurement": "Activity", "setting": "[14]", "value": "Toxic"}, {"measurement": "Activity", "setting": "[15]", "value": "Toxic"}, {"measurement": "Activity", "setting": "[16]", "value": "Toxic"}, {"measurement": "MTD at 336 h", "setting": "[17]", "value": 183, "unit": "mg/kg"}, {"measurement": "AUC(0-inf)", "setting": "[18]", "value": 289, "unit": "µg·h/mL"}, {"measurement": "half-life", "setting": "[19]", "value": 59.8, "unit": "min"}, {"measurement": "MRT last at 72 h", "setting": "[20]", "value": 24, "unit": "min"}, {"measurement": "Activity", "setting": "[21]", "value": "Toxic"}, {"measurement": "Activity", "setting": "[22]", "value": "Toxic"}, {"measurement": "Activity", "setting": "[23]", "value": "Toxic"}, {"measurement": "Activity", "setting": "[24]", "value": "Toxic"}, {"measurement": "Activity", "setting": "[25]", "value": "Non-Toxic"}, {"measurement": "Activity", "setting": "[26]", "value": "Toxic"}, {"measurement": "Activity", "setting": "[27]", "value": "Non-Toxic"}, {"measurement": "Activity", "setting": "[28]", "value": "Toxic"}, {"measurement": "Activity", "setting": "[29]", "value": "Toxic"}, {"measurement": "Activity", "setting": "[30]", "value": "Non-Toxic"}, {"measurement": "Activity", "setting": "[31]", "value": "Toxic"}, {"measurement": "Activity", "setting": "[32]", "value": "Toxic"}]}]}
